2 substances from patent US8148141B2, “Peptide-immobilized substrate and method for measuring target protein” (HiPep Laboratories, priority 2001, dated 2012) can be followed below.

Ends that are not written are not given here. Rf = not defined here

The test system of assay [1] is amylase. Put plainly: amylase measurement with immobilized fluorescent-labeled β-loop peptide chip. The assay is classed as binding. The conditions noted are these: carboxyfluorescein group; exciting 490 nm, detection 520 nm; amylase 1.0 μM, Tris buffer pH7.4, 150 mM NaCl; 25° C., 5 minutes. The protocol: As schematically shown in FIG. 4, amylase was measured using a peptide chip in which a peptide whose one terminus was labeled with a fluorescent label, which peptide has β-loop structure, was immobilized on a substrate. The procedures were carried out as follows:
As in Example 1, as schematically shown in FIG. 4, a peptide which forms β-loop structure was designed by molecular modeling using a computer based on the amino acid sequence of the peptide described in a reference (F. J. Blanco et al., Eur J Biochem 200, 345-351 (1991), S. Ono et al, Biosci Biotechnol Biochem, 62, 1621-1623 (1998)). As a result, as the amino acid sequence of the core region, the sequence Tyr-Gln-Ser-Trp-Arg-Tyr-Ser-Gln-Ala (SEQ ID NO: 5) was employed. The peptide having this sequence to which Cys residue as an anchor for immobilization was added to one terminus, and to which Lys residue having a fluorescent group Rf (fluorescent group such as carboxyfluorescein in FIG. 4) was added to another terminus, was synthesized. […] When carboxyfluorescein group was used, fluorescence measurement was performed employing exciting wavelength of 490 nm and detection wavelength of 520 nm. By adding an amylase solution (Tris buffer pH7.4, 150 mM NaCl, amylase concentration: 1.0 μM), about ten times increase of the fluorescence intensity was measured, so that the amylase was able to be detected and quantified. […]

The target in assay [2] is calmodulin (Homo sapiens, UniProt P0DP23). The assay is described as follows: calmodulin measurement with immobilized fluorescent-labeled α-helix peptide chip. The assay is classed as binding. To be noted: carboxyfluorescein peptide; exciting 490 nm, detection 520 nm; in the presence of calmodulin; 25° C., 5 minutes. The protocol:
As schematically shown in FIG. 3, calmodulin was measured using a peptide chip in which peptides having α-helix structure, each of which both termini were labeled with different fluorescent labels, were immobilized on a substrate. The procedures were carried out as follows:
The sequence of the core region of the peptides, which forms α-helix structure was designed by molecular modeling using a computer (molecular modeling using Insight II/Discover, Molecular Simulation, U.S.) based on the amino acid sequence of the peptide described in a reference (K. T. O'Neil and W. F. DeGrado, Trend Biochem Sci, 15, 59-64 (1990)). As a result, the amino acid sequence Leu-Lys-Lys-Leu-Leu-Lys-Leu-Leu-Lys-Lys-Leu-Leu-Lys-Leu (SEQ ID NO:1) was employed as the amino acid sequence of the core region. […]

As for “Lys(Rf)-Tyr-Gln-Ser-Trp-Arg-Tyr-Ser-Gln-Ala-Cys-NH2 (K(Rf)YQSWRYSQAC-NH2; reading uncertain; also: printed as Lys(Rf)-Tyr-Gln-Ser-Trp-Arg-Tyr-Ser-Gln-Ala-Cys-NH2) [SEQ ID NO: 6, Rf fluorescent group such as carboxyfluorescein]”, the “increase of the fluorescence intensity” value in assay [1] was “about ten”.

On to “Lys(Rf3)-Leu-Lys-Lys-Leu-Leu-Lys-Leu-Leu-Lys-Lys-Leu-Leu-Lys-Leu-Cys-NH2 (K(carboxyfluorescein)LKKLLKLLKKLLKLC-NH2) [peptide containing carboxylfluorescein, Rf3 carboxyfluorescein group]”, for which, in assay [2], the “increase of the fluorescence intensity” value is listed as “about ten”.
